Structures are written as SMILES.

Holding throughout (assay type): cell-based
Assay [1] deals with T1, CXCR3 (Homo sapiens, UniProt P49682).
T1 sequence (P49682 1-368): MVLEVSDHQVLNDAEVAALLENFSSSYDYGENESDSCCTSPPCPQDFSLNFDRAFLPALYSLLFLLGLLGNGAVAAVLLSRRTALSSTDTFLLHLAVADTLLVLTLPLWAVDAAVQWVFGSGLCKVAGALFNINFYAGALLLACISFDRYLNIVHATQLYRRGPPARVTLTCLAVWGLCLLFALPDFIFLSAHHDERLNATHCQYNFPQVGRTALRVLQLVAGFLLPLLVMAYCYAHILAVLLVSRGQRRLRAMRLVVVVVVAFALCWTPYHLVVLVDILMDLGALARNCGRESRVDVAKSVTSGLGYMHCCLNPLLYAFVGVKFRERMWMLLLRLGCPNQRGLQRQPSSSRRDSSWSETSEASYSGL
Description: Chemotaxis assay IP10, L1.2 recombinant cells expressing hCXCR3. As to conditions: L1.2 hCXCR3 cells, IP10 around 0.3 nM, 4 hours. The protocol:
(§1) Human CXCR3 cDNA was amplified by PCR from a human cells cDNA library (Clontech) and subcloned into pcDNA3.1 (Invitrogen). Murine pre-B L1.2 cells were transfected with hCXCR3-pcDNA3.1 and were grown at 37° C., 5% CO2 in RPMI 1640 medium (Invitrogen, USA) supplemented with 5% heat inactivated fetal calf serum (Cancerra, Australia), 2 mM glutamine (Invitrogen), 50 units ml−1 penicillin, 50 μml−1 streptomycin. Stable transfectant clonal populations were selected using 800 μg/ml geneticin.
L1.2 recombinant cells expressing the receptor hCXCR3 were maintained in culture in RPMI 1640 (invitrogen), 5% Foetal Bovine Serum (invitrogen), 2 mM glutamine(invitrogen), 50 u/ml penicillin/streptomycin (invitrogen), at 37° C.-5% CO2—in an H2O saturated incubator. In order to stimulate the expression of the receptor, cells were incubated overnight with 5 mM butyric acid (Sigma)
This mix of cells/compounds was then incubated at 37° C.-5% CO2—in an H2O saturated incubator during 30 minutes. Cells were then dispensed as a drop on each corresponding wells of the chemotaxis system. Cell migration was then induced at 37° C.-5% CO2—in an H2O incubator during 4 hours. Filters were then removed and cells that had migrated were transferred in a black plate (Costar). The plates were stored overnight at −80° C. Cell migration ratio was calculated using the cyquant dye (Molecular Probes-C7026).

For assay [2], the target named is T1, CXCR3. As to the kind of experiment: Chemotaxis assay ITAC (CXCL11), L1.2-CXCR3 cells. On the set-up: expressed in transfected cells. As to conditions: 1 nM CXCL11 (I-TAC), 4 hours. The protocol:
as §1
L1.2-CXCR3 cells were grown for 24 hours at 0.5×10^6 cells/ml in chemotaxis medium containing 5 mM butyric acid (Sigma). Compounds were on one hand mixed with 1 nM of CXCL11 (I-TAC) in phenol-red free RPMI 1640 (invitrogen) supplemented with 5% fetal bovine serum in presence of 1% DMSO. The CXCL11/compounds mixture was then added to lower chambers of chemotaxis 96 well microplates (neuroprobe), and framed filters ([…] pore size) were put on top of the lower chambers. Compounds were on the other hand mixed with L1.2 CXCR3 cells and incubated in chemotaxis medium at 1.5×10^6 cells/ml in presence of 1% DMSO at 37° C., 5% CO2 for 30 minutes. Cells/compounds mixture was then added on top of the frame filters and migration was performed at 37° C., 5% CO2 for 4 hours. The number of migrated cells in the bottom chamber was determined using the CyQuant GR dye (Molecular Probe), according to the manufacturer.

Assay [3] has as its target T1, CXCR3. As to the kind of experiment: CXCR3 Ca2+ mobilization (FLIPR), stable hCXCR3-CHO cell line, I-TAC stimulated. On the set-up: host or cells: CHO cells stably expressing hCXCR3. The settings on record: hCXCR3-CHO cells, I-TAC 100 nM stimulated Ca2+ response; read-out: Ca-ITAC. The procedure, abridged: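 CHO cells stably expressing hCXCR3, grown 18 hours after plating, loaded with calcium indicator dye 60 minutes; compounds equilibrated 20 minutes at room temperature. Fluorescence change evoked by 100 nM I-TAC read on FLIPR; activity expressed as percent of I-TAC response without compound (100%).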
A general note: Calcium assays in cells follow changes in intracellular calcium, usually with a dye or a luminescent sensor.

On to `O=C(NCCc1cccc([N+](=O)[O-])c1)c1ccc(CN(Cc2ccccc2)S(=O)(=O)c2ccc(Cl)cc2)cc1` [Example 4, 4-({benzyl[(4-chlorophenyl)sulfonyl]amino}methyl)-N-[2-(3-nitrophenyl)ethyl]benzamide], for which the IC50 at CXCR3 [1] is 2.45 µM.
The same measure, in the same setting: the same measure for `O=C(NC[C@@H]1CCCO1)c1ccc(CN(Cc2ccccc2)S(=O)(=O)c2ccc(Cl)cc2)cc1` [Example 3, 4-({benzyl[(4-chlorophenyl)sulfonyl]amino}methyl)-N-[(2S)-tetrahydrofuran-2-ylmethyl]benzamide]: 2.27 µM.
Same read-out and setting: the same measure for `O=S(=O)(c1ccc(Cl)cc1)N(Cc1ccc(-c2nnn[nH]2)cc1)Cc1cccc(Cl)c1` [Example 21, 4-chloro-N-(3-chlorobenzyl)-N-[4-(1H-tetrazol-5-yl)benzyl]benzenesulfonamide]: 1.29 µM; for `Cc1noc(C)c1CN(Cc1ccc(-c2nnn[nH]2)cc1)S(=O)(=O)c1ccc(Cl)cc1` [Example 58, 4-chloro-N-[(3,5-dimethylisoxazol-4-yl)methyl]-N-[4-(2H-tetrazol-5-yl)benzyl]benzene sulfonamide]: 1.43 µM; for `O=S(=O)(c1ccc(Cl)cc1)N(Cc1ccc(-c2nnn[nH]2)cc1)Cc1ccccc1F` [Example 20, 4-chloro-N-(2-fluorobenzyl)-N-[4-(1H-tetrazol-5-yl)benzyl]benzene sulfonamide]: 0.47 µM.
On to `O=S(=O)(c1ccc(Cl)cc1)N(Cc1ccc(-c2nnc(O)o2)cc1)Cc1ccccn1` [Example 19, 4-chloro-N-[4-(5-hydroxy-1,3,4-oxadiazol-2-yl)benzyl]-N-(pyridin-2-ylmethyl)benzene sulfonamide], for which the IC50 on CXCR3 [1] amounted to 0.695 µM.
`O=S(=O)(c1ccc(Cl)cc1)N(Cc1ccc(-c2nnn[nH]2)cc1)Cc1ncco1` [Example 59, 4-chloro-N-(1,3-oxazol-2-ylmethyl)-N-[4-(2H-tetrazol-5-yl)benzyl]benzene sulfonamide]: on CXCR3 [1], the IC50 was 3.67 µM.
With `COc1ccc(CN(Cc2ccc(-c3nnn[nH]3)cc2)S(=O)(=O)c2ccc(Cl)cc2)cc1` [Example 24, 4-Chloro-N-(4-methoxy-benzyl)-N-[4-(1H-tetrazol-5-yl)-benzyl]-benzenesulfonamide], on CXCR3 [1], the IC50 came to 0.885 µM.
For the compound `N#Cc1ccc(S(=O)(=O)N(Cc2ccc(C(=O)NC3(c4ccccc4)CC3)cc2)Cc2cccnc2)cc1` [Example 113], the IC50 against CXCR3 [2] turned out to be 1300 nM; on CXCR3 [3] it was 320 nM.
In the case of `COc1cccc(CN(Cc2ccc(-c3nnn[nH]3)cc2)S(=O)(=O)c2ccc(Cl)cc2)c1` [Example 23, 4-chloro-N-(3-methoxybenzyl)-N-[4-(1H-tetrazol-5-yl)benzyl]benzene sulfonamide], the IC50 at CXCR3 [1] stood at 1.46 µM.
The same measure, in the same setting: the same measure for `COc1ccc(S(=O)(=O)N(Cc2ccc(C(=O)NCc3cccc(Cl)c3)cc2)Cc2cccnc2)cc1` [Example 9, N-(3-chlorobenzyl)-4-{[[(4-methoxyphenyl)sulfonyl](pyridin-3-ylmethyl)amino]methyl}benzamide]: 1.15 µM.
Consider `CC(C)(C)OC(=O)N1C[C@@H]2[C@H](C1)[C@H]2NC(=O)c1ccc(CN(Cc2ccccc2)S(=O)(=O)c2ccc(Cl)cc2)cc1` [Example 106], for which the IC50 on CXCR3 [2] is 510 nM; at CXCR3 [3], 300 nM.
The like results for `CCOc1ccc(S(=O)(=O)N(Cc2ccc(C(=O)O)c(F)c2)Cc2ccccn2)cc1` [Example 66, 4-{[(4-Ethoxy-benzenesulfonyl)-pyridin-2-ylmethyl-amino]-methyl}-2-fluoro-benzoic acid] were, in that order, 4600 nM and 2000 nM.
Turning to `CC(=O)OC(C(=O)Nc1ccc(CN(Cc2ccccn2)S(=O)(=O)c2ccc(Cl)cc2)cc1)c1ccccc1` (centres unmarked) [Example 169], the IC50 on CXCR3 [2] was determined as 10 nM; on CXCR3 [3] it was 700 nM.
Consider `COc1ccc(S(=O)(=O)NC(=O)c2ccc(CN(Cc3ccccn3)S(=O)(=O)c3ccc(Cl)cc3)cc2)cc1` [Example 14, 4-{[[(4-chlorophenyl)sulfonyl](pyridin-2-ylmethyl)amino]methyl}-N-[(4-methoxyphenyl)sulfonyl]benzamide], for which the IC50 at CXCR3 [1] worked out at 3.87 µM.
Regarding `O=C(NC1(c2cccc(Cl)c2)CC1)c1ccc(CN(Cc2ccccn2)S(=O)(=O)c2ccc(Cl)cc2)cc1` [Example 122], the IC50 on CXCR3 [2] stood at 240 nM; at CXCR3 [3], 600 nM.
The matching figures for `CC(=O)N1C[C@@H]2[C@H](C1)[C@H]2NC(=O)c1ccc(CN(Cc2ccccn2)S(=O)(=O)c2ccc(C#N)cc2)cc1` [Example 119]: 2140 nM and 870 nM.
The like results for `COC(=O)c1ccc(S(=O)(=O)N(Cc2ccc(C(=O)NC3(c4ccccc4)CC3)cc2)Cc2ccccn2)cc1` [Example 150] were, in that order, 10 nM and 300 nM.
Consider `O=S(=O)(c1ccc(Cl)cc1)N(Cc1ccc(F)cc1)Cc1ccc(-c2nnn[nH]2)cc1` [Example 22, 4-chloro-N-(4-fluorobenzyl)-N-[4-(1H-tetrazol-5-yl)benzyl]benzenesulfonamide], for which the IC50 on CXCR3 [1] was determined as 2.56 µM.
`O=S(=O)(c1ccc(Cl)cc1)N(Cc1ccc(-c2nnn[nH]2)cc1)Cc1ccc2ccccc2n1` [Example 75]: the values for the IC50 against CXCR3 [2] and at CXCR3 [3] were 2520 nM and 2000 nM, respectively.
The matching figures for `N#Cc1ccc(S(=O)(=O)N(Cc2ccc(C(=O)NC3(c4ccc(Cl)cc4)CC3)cc2)Cc2ccccn2)cc1` [Example 126]: 170 nM and 700 nM.
The matching figures for `Cn1c(CNC(=O)c2ccc(CN(Cc3ccccn3)S(=O)(=O)c3ccc(C#N)cc3)cc2)nc2ccccc21` [Example 143]: 1000 nM and 400 nM.
The like results for `COC(=O)[C@@H](Cc1ccccc1)NC(=O)c1ccc(CN(Cc2ccccn2)S(=O)(=O)c2ccc(Cl)cc2)cc1` [Example 145] were, in that order, 400 nM and 2000 nM.
Consider `N#Cc1ccc(S(=O)(=O)N(Cc2ccc(C(=O)NCc3ccncc3)cc2)Cc2ccccn2)cc1` [Example 137], for which the IC50 is 4310 nM against CXCR3 [2] and 3000 nM on CXCR3 [3].
With `CCOc1ccc(S(=O)(=O)N(Cc2ccc(C(=O)NC3(c4cccc(Cl)c4)CC3)cc2)Cc2ccccn2)cc1` [Example 124], the IC50 on CXCR3 [2] turned out to be 160 nM; on CXCR3 [3], 500 nM.
The like results for `CC(=O)NC(C(=O)Nc1ccc(CN(Cc2ccccn2)S(=O)(=O)c2ccc(Cl)cc2)cc1)c1ccccc1` (centres unmarked) [Example 185] were, in that order, 30 nM and 300 nM.
Regarding `O=C(NC(C(=O)O)c1ccc(F)c(F)c1)c1ccc(CN(Cc2ccccn2)S(=O)(=O)c2ccc(Cl)cc2)cc1` (centres unmarked) [Example 149, (4-{[(4-Chloro-benzenesulfonyl)-pyridin-2-ylmethyl-amino]-methyl}-benzoylamino)-(3,4-difluoro-phenyl)-acetic acid], the IC50 against CXCR3 [2] was determined as 73 nM; on CXCR3 [3], 100 nM.
The matching figures for `O=S(=O)(c1ccc(OC(F)(F)F)cc1)N(Cc1ccc(-c2nnn[nH]2)cc1)Cc1ccccn1` [Example 120]: 4470 nM and 200 nM.
The like results for `Cc1nnc(CNC(=O)c2ccc(CN(Cc3ccccn3)S(=O)(=O)c3ccc(C#N)cc3)cc2)o1` [Example 142] were, in that order, 4180 nM and 10000 nM.
The matching figures for `N#Cc1ccc(S(=O)(=O)N(Cc2ccc(C(=O)NCC(O)c3ccccc3)cc2)Cc2cccnc2)cc1` (centres unmarked) [Example 109]: 130 nM and 750 nM.
For the compound `N#Cc1cccc(CN(Cc2ccccn2)S(=O)(=O)c2ccc(Cl)cc2)c1` [Example 195], the IC50 against CXCR3 [2] stood at 6810 nM; at CXCR3 [3] it was 4200 nM.

(Values after patent publication US20110028509A1, “Sulfonamides” (MERCK SERONO SA, priority 2008, published 2011).)
